Source: BindingDB's records for doi:10.1002/cbic.201200521 (University of Cambridge, 2013)

What follows are molecules tested against DNA repair and recombination protein RadA (Pyrococcus furiosus (strain ATCC 43587 / DSM 3638 / JCM 8422 / Vc1), UniProt O74036) (assay: Thermal Denaturation Assay).
Experimental: The thermal-shift denaturation assay was performed on an iCycler iQ Real Time Detection System (BioRad) in 96-well iCycler iQ PCR plates sealed with optically clear lids.

`Oc1ccc2[nH]ccc2c1` and `Cc1ccc2[nH]ccc2c1` [Indole, 2] are the same in Kd: 2100 µM for the first, 2100 µM for the second.

Compared with `c1ccc2[nH]ncc2c1` [Indazole, 5], `COC(=O)[C@@H](N)Cc1c[nH]c2ccccc12` [L-Methyl ester tryptophan, 8] is 1.8-fold lower in Kd: 1000 µM for the first, 570 µM for the second. The second binds more tightly here.
